# Results published in patent US20100204265A1 (priority 2009, published 2010).
# Tested on: ET (Huh-lucubineo-ET) cell line harboring I389luc-ubi-neo/NS3-3′/ET HCV replicon
# Experiment: Replicon assay (HCV replicon, luciferase readout)
# Assay type: cell-based
# Conditions: Hepatitis C virus
# How it was run: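 Compounds at 10-point 2-fold dilutions (overall 0.1 nM to […], 0.5% DMSO) were applied to ET cells carrying a luciferase-neo HCV replicon, seeded a day earlier. After 48-72 hours, luciferase-based % inhibition was fitted with a Hill equation for EC50, and parallel WST-1 readings gave TC50.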
row,Compound,EC50 [µM]
1,"O=C(c1nc2c(C(F)(F)F)cc(-c3ccoc3)cn2c1CO)N1CC=C(c2ncccc2F)CC1 [Compound 171, (3-Fluoro-3′,6′-dihydro-2′H-[2,4′]bipyridinyl-1′-yl)-(6-furan-3-yl-3-hydroxymethyl-8-trifluoromethyl-imidazo[1,2-a]pyridin-2-yl)-methanone]",1.41
2,"CC(O)c1c(C(=O)N2CC=C(c3ncccc3F)CC2)nc2c(C(F)(F)F)cc(-c3ccoc3)cn12 (stereo not drawn) [Compound 172, (3-Fluoro-3′,6′-dihydro-2′H-[2,4′]bipyridinyl-1′-yl)-[6-furan-3-yl-3-(1-hydroxy-ethyl)-8-trifluoromethyl-imidazo[1,2-a]pyridin-2-yl]-methanone]",3.11
3,"O=C(c1nc2c(C(F)(F)F)cc(-c3cn[nH]c3)cn2c1CO)N1CC=C(c2nccs2)C1 [Compound 173, [3-Hydroxymethyl-6-(1H-pyrazol-4-yl)-8-trifluoromethyl-imidazo[1,2-a]pyridin-2-yl]-(3-thiazol-2-yl-2,5-dihydro-pyrrol-1-yl)-methanone]",0.444
4,"O=C(c1nc2c(C(F)(F)F)cc(-c3cn[nH]c3)cn2c1Cl)N1CCC(OCC2CC2)CC1 [Compound 174, [3-Chloro-6-(1H-pyrazol-4-yl)-8-trifluoromethyl-imidazo[1,2-a]pyridin-2-yl]-(4-cyclopropylmethoxy-piperidin-1-yl)-methanone]",0.31
5,"O=C(c1nc2c(C(F)(F)F)cc(-c3ccoc3)cn2c1Cl)N1CCC(OCC2CC2)CC1 [Compound 175, (3-Chloro-6-furan-3-yl-8-trifluoromethyl-imidazo[1,2-a]pyridin-2-yl)-(4-cyclopropylmethoxy-piperidin-1-yl)-methanone]",0.79
6,"CCCOC1CCN(C(=O)c2nc3c(C(F)(F)F)cc(-c4cn[nH]c4)cn3c2Cl)CC1 [Compound 176, [3-Chloro-6-(1H-pyrazol-4-yl)-8-trifluoromethyl-imidazo[1,2-a]pyridin-2-yl]-(4-propoxy-piperidin-1-yl)-methanone]",0.883
7,"CCOC1CCN(C(=O)c2nc3c(C(F)(F)F)cc(-c4cn[nH]c4)cn3c2Cl)CC1 [Compound 177, [3-Chloro-6-(1H-pyrazol-4-yl)-8-trifluoromethyl-imidazo[1,2-a]pyridin-2-yl]-(4-ethoxy-piperidin-1-yl)-methanone]",1.08
8,"COc1cccc(NC2CCN(C(=O)c3nc4c(C(F)(F)F)cc(-c5ccoc5)cn4c3Cl)C2)c1 (stereo not drawn) [Compound 178, (3-Chloro-6-furan-3-yl-8-trifluoromethyl-imidazo[1,2-a]pyridin-2-yl)-[3-(3-methoxy-phenylamino)-pyrrolidin-1-yl]-methanone]",2.41
9,"O=C(c1nc2c(C(F)(F)F)cc(-c3cn[nH]c3)cn2c1Cl)N1CCC(Nc2ccccc2)C1 (stereo not drawn) [Compound 179, [3-Chloro-6-(1H-pyrazol-4-yl)-8-trifluoromethyl-imidazo[1,2-a]pyridin-2-yl]-(3-phenylamino-pyrrolidin-1-yl)-methanone]",10.2
10,"COc1ccc(NC2CCN(C(=O)c3nc4c(C(F)(F)F)cc(-c5ccoc5)cn4c3Cl)C2)cc1 (stereo not drawn) [Compound 180, (3-Chloro-6-furan-3-yl-8-trifluoromethyl-imidazo[1,2-a]pyridin-2-yl)-[3-(4-methoxy-phenylamino)-pyrrolidin-1-yl]-methanone]",12.1
11,"CCOC1CCN(C(=O)c2nc3c(C(F)(F)F)cc(-c4cn[nH]c4)cn3c2Cl)C1 (stereo not drawn) [Compound 181, [3-Chloro-6-(1H-pyrazol-4-yl)-8-trifluoromethyl-imidazo[1,2-a]pyridin-2-yl]-(3-ethoxy-pyrrolidin-1-yl)-methanone]",13.5
12,"NC(=O)COC1CCN(C(=O)c2nc3c(C(F)(F)F)cc(-c4cn[nH]c4)cn3c2Cl)CC1 [Compound 182, 2-{1-[3-Chloro-6-(1H-pyrazol-4-yl)-8-trifluoromethyl-imidazo[1,2-a]pyridine-2-carbonyl]-piperidin-4-yloxy}-acetamide]",54.6
